The text below walks through data of ChEMBL document CHEMBL5550119, “Design, synthesis, and evaluation of formylpiperazine analogs of Ferrostatin-1 as novel improved ferroptosis inhibitors” (Bioorg Med Chem, 2024).

Series [1] can be described thus: Solubility of compound in PBS buffer at pH 7.4 at 3.13 to 200 uM incubated for 2 hrs by turbidity based assay. Type of series: physicochemical. Particulars: dose 3.13-200 µM.
Series [2] can be described thus: Antioxidant activity assessed as DPPH radical scavenging activity at 50 uM incubated under dark condition for 30 mins by absorbance based analysis relative to control. Type of series: functional.
The nature of series [3]: Antioxidant activity assessed as DPPH radical scavenging activity incubated under dark condition for 30 mins by absorbance based analysis. Type of series: functional. (Loss of DPPH colour is used to gauge radical scavenging.)
For series [4], the system named is HUVEC. The series is described as follows: Anti-ferroptosis activity in HUVEC cells assessed as inhibition of erastin-induced ferroptosis by measuring lethality suppression incubated for 24 hrs by SRB assay. Type of series: functional, cell-based. The note with it: Homo sapiens. (The SRB assay estimates cell density from bound dye.)
Series [5] concerns HUVEC. Kind of series: Anti-ferroptosis activity in erastin-induced HUVEC cells assessed as reduction in cytoplasmic ferrous ion level at 10 uM incubated for 24 hrs by FerroOrange fluorescent probe based fluorescence microscopic analysis. The series is classed as functional, cell-based. Particulars: Homo sapiens.
The test system of series [6] is HUVEC. The series is described as follows: Anti-ferroptosis activity in erastin-induced HUVEC cells assessed as reduction in ROS level by measuring reduction in DCF fluorescence intensity at 10 uM incubated for 24 hrs by DCFH-DA fluorescent probe based fluorescence microscopic analysis. The note with it: Homo sapiens. Type of series: functional, cell-based.
The test system of series [7] is HUVEC. The series is described as follows: Anti-ferroptosis activity in erastin-induced HUVEC cells assessed as reduction in mitochondrial impairment by measuring reduction in number of JC-1 monomers at 10 uM incubated for 24 hrs by JC-1 fluorescent probe based fluorescence microscopic analysis. Type of series: functional, cell-based. Particulars: Homo sapiens.
Series [8] concerns HUVEC. The series is described as follows: Anti-ferroptosis activity in erastin-induced HUVEC cells assessed as increase in GSH level at 10 uM incubated for 24 hrs. The series is classed as functional, cell-based. Particulars: Homo sapiens.
Series [9] has as its system HUVEC. Kind of series: Anti-ferroptosis activity in erastin-induced HUVEC cells assessed as reduction in malondialdehyde level at 10 uM incubated for 24 hrs. The series is classed as functional, cell-based. The note with it: Homo sapiens.
The test system of series [10] is HUVEC. The series is described as follows: Anti-ferroptosis activity in erastin-induced HUVEC cells assessed as reduction in lipid peroxidation level at 10 uM incubated for 24 hrs. The series is classed as functional, cell-based. The note with it: Homo sapiens.
Series [11] deals with HUVEC. The series is described as follows: Anti-ferroptosis activity in erastin-induced HUVEC cells assessed as increase in GPX4 protein level at 10 uM incubated for 24 hrs by Western blot analysis. The series is classed as functional, cell-based. The note with it: Homo sapiens. For orientation: Immunoblotting shows a protein as a band on a membrane.
The nature of series [12]: Metabolic stability in human liver microsomes assessed as half life at […] incubated for 2 hrs in presence of NADPH by LC-MS/MS analysis. Type of series: ADME, Microsome.
Series [13] in a line: Metabolic stability in rat liver microsomes assessed as half life at […] incubated for 2 hrs in presence of NADPH by LC-MS/MS analysis. Type of series: ADME, Microsome.
Series [14] concerns HUVEC. Kind of series: Anti-ferroptosis activity in HUVEC cells assessed as inhibition of erastin-induced ferroptosis by measuring lethality suppression at 10 uM incubated for 24 hrs by SRB assay. The note with it: Homo sapiens. Type of series: functional, cell-based.

Values after ≈ are worked out from the molar mass of the structure shown. Active and inactive are the calls of the source. The calls are words filed in the database; no cut-off is given here.

As for `CCOC(=O)c1ccc(NC2CCCCC2)c(NCc2ccccc2)c1`, the solubility (kinetic) (commonly the concentration staying in solution when a stock, usually in DMSO, is diluted into the medium) at 2 h in series [1] was found to be 6.2 µM (≈ 2.19 µg/mL). Further, the Activity in [2] was 56.4%. In series [3], the IC50 (in general, the concentration needed to halve the response being measured) is 46.8 µM.
For the compound `O=C(c1ccc(NC2CCCCC2)c(NCc2ccccc2)c1)N1CCN(Cc2ccc(F)cc2Br)CC1`, the EC50 (in general, the concentration that produces a half-maximal response) in the series on HUVEC [4] was 730 nM. In series [1], this compound came in with a kinetic solubility at 2 h of 28.6 µM (≈ 16.6 µg/mL). For the same compound, the Activity in [2] came to 50.5%. In addition, the 50% inhibitory concentration (IC50) in [3] turned out to be 60.8 µM.
`O=C(c1ccc(NC2CCCCC2)c(NCc2ccccc2)c1)N1CCN(Cc2ccncc2)CC1`: the concentration giving a half-maximal response (EC50) with HUVEC [4] turned out to be 790 nM. The same compound came in with a kinetic solubility at 2 h in series [1] of 20 µM (≈ 9.67 µg/mL). Besides, in series [2], the Activity stood at 55.4%. Moreover, the concentration for half-maximal inhibition (IC50) in series [3] is 43.6 µM.
With `CS(=O)(=O)c1ccc(CN2CCN(C(=O)c3ccc(NC4CCCCC4)c(NCc4ccccc4)c3)CC2)cc1`, the EC50 with HUVEC [4] was found to be 500 nM. In addition, the solubility (kinetic) at 2 h in series [1] worked out at 28.6 µM (≈ 16 µg/mL). In series [2], the Activity stood at 54%. In addition, the IC50 in [3] stood at 28.9 µM. The outcome with HUVEC [5], in the series on HUVEC [6], with HUVEC [7], in the series with HUVEC [8], with HUVEC [9] and in the series with HUVEC [10] was Active. Moreover, the result with HUVEC [11] was Active. Moreover, the half-life – broadly, the time in which the quantity being followed falls by half – was found to be 50.2 min in series [12] and 35.7 min in series [13].
As for `CN1CCN(C(=O)c2ccc(NC3CCCCC3)c(NCc3ccccc3)c2)CC1`, the result in the series with HUVEC [14] was inactive.
On to `O=C(c1ccc(NC2CCCCC2)c(NCc2ccccc2)c1)N1CCN(Cc2ccc(-c3ccccc3)c(-c3ccccc3)c2)CC1`, for which the EC50 in the series on HUVEC [4] was 610 nM. Moreover, the solubility (kinetic) at 2 h in [1] is 22.2 µM (≈ 14.1 µg/mL). Further, the Activity in series [2] came out at 54%. The concentration for half-maximal inhibition (IC50) in [3] amounted to 42.9 µM.
In the same order, the values of `COc1ccc(Br)c(CN2CCN(C(=O)c3ccc(NC4CCCCC4)c(NCc4ccccc4)c3)CC2)c1` are 680 nM, 20 µM (≈ 11.8 µg/mL), 63.8% and 41.3 µM.
In the case of `CCOC(=O)c1ccc(NC2CCCCC2)c(N)c1`, in series [1], the kinetic solubility at 2 h was greater than 200 µM. Also, in [2], the Activity came to 52.5%. Besides, the IC50 in series [3] turned out to be 54.3 µM. Further, the outcome in the series with HUVEC [5], in the series on HUVEC [6], in the series with HUVEC [7], in the series on HUVEC [8] and in the series on HUVEC [11] was Active. Besides, the half-life amounted to 16.8 min in series [12] and 18.4 min in [13].
